This note sets out measurements from patent US20050067347A1, “Sustainable process for the treatment and detoxification of liquid waste” (priority 2001, published 2005).

The experiment concerns Pycnoporus sanguineus MUCL 41582. Nature of the experiment: Laccase activity of fungal culture with inductors. The following applies: for Enzymatic activity: laccase activity, inductor added after 2 days of pre-culture, measured after 5 days of incubation. In kind it is cell-based. On the procedure: In an example, the inductors NY3, NY5 and RBBR were added to a fungal culture of Pycnoporus sanguineus MUCL 41582 after 2 days of pre-culture. Laccase activity was measured after 5 days of incubation of the culture with the inductors. Results are indicated in the below-given Table 2 and show clearly that laccase activity is enhanced when the fungus is cultured in the presence of inductors.

Turning to `Nc1c(S(=O)(=O)O)cc(NC2CCCCC2)c2c1C(=O)c1ccccc1C2=O` [NY3], the Enzymatic activity worked out at 3.87 nmol/mL. Regarding `Cc1ccc(OS(=O)(=O)Oc2ccc(Nc3cc(S(=O)(=O)O)c(N)c4c3C(=O)c3ccccc3C4=O)cc2)cc1` [NY5], the Enzymatic activity came out at 11.60 nmol/mL. Moreover, for the setting “versus culture without inductor”, the “increase of laccase activity” value is recorded as “more than 20 fold”. `Nc1c(S(=O)(=O)[O-])cc(Nc2cccc(S(=O)(=O)CCOS(=O)(=O)[O-])c2)c2c1C(=O)c1ccccc1C2=O.[Na+].[Na+]` [RBBR] came in with an Enzymatic activity of 5.40 nmol/mL.
